Values after ≈ are worked out from the molar mass of the structure shown.

In test [1] the test system is E. coli (ATCC: 3008). Kind of test: Agar well diffusion, inhibition zone. It counts as cell-based, Escherichia coli. To be noted: for diameter of the inhibition zone: E. coli (ATCC: 3008), Gram (−ve), agar well diffusion, 15 mg/mL, mean ± SD; for zone of inhibition at 15000 µg/mL: Escherichia coli, read-out: diameter of the inhibition zone.
Test [2] relates to K. pneumonia (ATCC: 4415). Kind of test: Agar well diffusion, inhibition zone. The class given is cell-based, Klebsiella pneumonia. To be noted: for diameter of the inhibition zone: K. pneumonia (ATCC: 4415), Gram (−ve), 15 mg/mL, mean ± SD; for zone of inhibition at 15000 µg/mL: Klebsiella pneumoniae, read-out: diameter of the inhibition zone, K. pneumonia (ATCC: 4415), Gram (−ve), 15 mg/mL, mean ± SD.

Test [3] concerns P. aeruginosa (ATCC: 27853). Kind of test: Agar well diffusion, inhibition zone. To be noted: P. aeruginosa (ATCC: 27853), Gram (−ve); agar well diffusion, 15 mg/mL; mean ± SD. It counts as cell-based, Pseudomonas aeruginosa.
Test [4] has as its system S. aureus (ATCC: 6538). Kind of test: Agar well diffusion, inhibition zone. To be noted: for zone of inhibition at 15000 µg/mL: Staphylococcus aureus, read-out: diameter of the inhibition zone; for diameter of the inhibition zone: S. aureus (ATCC: 6538), Gram (+ve), agar well diffusion, 15 mg/mL, mean ± SD. It counts as cell-based, Staphylococcus aureus.
Test [5] concerns S. mutans (ATCC: 25175). Kind of test: Agar well diffusion, inhibition zone. To be noted: for diameter of the inhibition zone: S. mutans (ATCC: 25175), Gram (+ve), agar well diffusion, 15 mg/mL, mean ± SD; for zone of inhibition at 15000 µg/mL: Streptococcus mutans, read-out: diameter of the inhibition zone. It counts as cell-based, Streptococcus mutans.
Test [6] relates to C. albicans (ATCC: 10231). Kind of test: Agar well diffusion, inhibition zone. The class given is cell-based, Candida albicans. To be noted: for diameter of the inhibition zone: C. albicans (ATCC: 10231), fungi, 15 mg/mL, mean ± SD.
Test [7] has as its system S. aureus (ATCC: 6538). Kind of test: MIC, twofold serial dilution. The class given is cell-based. The conditions noted are these: Staphylococcus aureus, 24 h.
In test [8] the test system is S. mutans (ATCC: 25175). Kind of test: MIC, twofold serial dilution. It counts as cell-based. The conditions noted are these: Streptococcus mutans, 24 h.
Test [9] deals with C. albicans (ATCC: 10231). Kind of test: MIC, twofold serial dilution. It counts as cell-based, Candida albicans. The conditions noted are these: C. albicans (ATCC: 10231); read after 24 h.
The subject of test [10] is E. coli (ATCC: 3008). Kind of test: MIC, twofold serial dilution. The class given is cell-based. To be noted: Escherichia coli, 24 h.
Test [11] has as its system K. pneumonia (ATCC: 4415). Kind of test: MIC, twofold serial dilution. It counts as cell-based. The conditions noted are these: Klebsiella pneumoniae, 24 h, read after 24 h.
The test system of test [12] is HFB4 human dermal fibroblast cell line. Kind of test: MTT cytotoxicity assay. It counts as cell-based. The conditions noted are these: 48 h.
The next test concerns the target T1, human DHFR (Homo sapiens, UniProt P00374).
T1 sequence (P00374 1-187): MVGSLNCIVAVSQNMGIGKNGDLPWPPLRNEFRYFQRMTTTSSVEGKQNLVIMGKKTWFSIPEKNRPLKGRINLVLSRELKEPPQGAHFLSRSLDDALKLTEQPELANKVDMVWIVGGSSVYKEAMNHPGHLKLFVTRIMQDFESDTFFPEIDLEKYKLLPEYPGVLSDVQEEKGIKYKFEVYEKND
Kind of test: DHFR inhibitor screening kit. The class given is biochemical. The conditions noted are these: for inhibition at 0.01 µg/mL / inhibition at 0.1 µg/mL / inhibition at 1 µg/mL / inhibition at 10 µg/mL: read-out: Inhibition of DHFR enzyme.

As to `CSc1c(C(=O)Nc2ccccc2)c(N)n(NS(=O)(=O)c2ccc(C)cc2)c(=O)c1-c1nc2ccccc2s1` [compound 9b, 2-Amino-5-(benzo[d]thiazol-2-yl)-1-(4-methylphenylsulfonamido)-4-(methylthio)-6-oxo-N-phenyl-1,6-dihydropyridine-3-carboxamide], the “diameter of the inhibition zone” value (in the test with E. coli (ATCC: 3008) [1]; in test [2]; in test [3]; in the test with S. mutans (ATCC: 25175) [5]; in test [6]) was “−” each time. Also, in the test on S. aureus (ATCC: 6538) [4], the zone of inhibition at 15000 µg/mL was determined as 27.1 ± 0.2 mm.

With `CC1(C)S[C@@H]2[C@H](NC(=O)[C@H](N)c3ccccc3)C(=O)N2[C@H]1C(=O)O` [Ampicillin, reference compound], the zone of inhibition at 15000 µg/mL came out at 32 ± 0.5 mm with S. aureus (ATCC: 6538) [4] and 22 ± 0.5 mm with S. mutans (ATCC: 25175) [5]. Besides, the MIC with S. aureus (ATCC: 6538) [7] and against S. mutans (ATCC: 25175) [8] was 62.5 µg/mL (≈ 179 µM) throughout.

With `C[C@@H]1[C@H](O)[C@@H](C)/C=C/C=C/CC/C=C/C=C/C=C/C=C/C(O[C@H]2O[C@H](C)[C@@H](O)[C@H](N)[C@@H]2O)CC2O[C@](O)(CC(O)C(O)CCC(O)CC(O)CC(O)CC(=O)O[C@H]1C)CC(O)C2C(=O)O` (stereo partly drawn) [Nystatin, reference compound], the “diameter of the inhibition zone” value in [6] is on record as 28.0 ± 0.1 mm. This compound also returned an MIC in test [9] of 31.25 µg/mL (≈ 33.7 µM).

In the case of `CSc1c(C#N)c(O)n(NS(=O)(=O)c2ccc(C)cc2)c(=O)c1-c1nc2ccccc2s1` [compound 5d, N-(3-(Benzo[d]thiazol-2-yl)-5-cyano-6-hydroxy-4-(methylthio)-2-oxopyridin-1(2H)-yl)-4-methylbenzenesulfonamide], the “diameter of the inhibition zone” value (in the test with E. coli (ATCC: 3008) [1]; in [3]; in the test on S. mutans (ATCC: 25175) [5]; in [6]) was “−” each time. Further, the zone of inhibition at 15000 µg/mL amounted to 18.2 ± 0.5 mm in [2] and 17.5 ± 2 mm in the test with S. aureus (ATCC: 6538) [4].

Take `CSc1c(C(=O)Nc2ccc(C)cc2)c(N)n(NS(=O)(=O)c2ccc(C)cc2)c(=O)c1-c1nc2ccccc2s1` [compound 9d, 2-Amino-5-(benzo[d]thiazol-2-yl)-1-(4-methylphenylsulfonamido)-4-(methylthio)-6-oxo-N-(p-tolyl)-1,6-dihydropyridine-3-carboxamide]: the “diameter of the inhibition zone” value is “−” in the test on E. coli (ATCC: 3008) [1], “−” in [2], “−” in test [3] and 28.0 ± 0.7 mm in [6]. Also, the zone of inhibition at 15000 µg/mL in the test on S. aureus (ATCC: 6538) [4] was 26.8 ± 1.5 mm; with S. mutans (ATCC: 25175) [5], 8.8 ± 1 mm; in test [6] (Candida albicans, read-out: diameter of the inhibition zone, C. albicans (ATCC: 10231), fungi, 15 mg/mL, mean ± SD), 21 to 28 mm.

Regarding `O=C(Cc1nc2ccccc2s1)NNS(=O)(=O)c1ccccc1` [compound 3a, N′-(2-(Benzo[d]thiazol-2-yl)acetyl)benzenesulfonohydrazide], the “diameter of the inhibition zone” value is “− ^a” in the test with E. coli (ATCC: 3008) [1]; “−” in test [3]; “−” in the test with S. aureus (ATCC: 6538) [4]; “−” in the test on S. mutans (ATCC: 25175) [5]; “−” in [6]. Besides, the zone of inhibition at 15000 µg/mL in [2] came to 20 ± 3 mm.

`COc1ccc(NC(=O)c2c(SC)c(-c3nc4ccccc4s3)c(=O)n(NS(=O)(=O)c3ccc(C)cc3)c2N)cc1` [compound 9f, 2-Amino-5-(benzo[d]thiazol-2-yl)-N-(4-methoxyphenyl)-1-(4-methylphenylsulfonamido)-4-(methylthio)-6-oxo-1,6-dihydropyridine-3-carboxamide]: the “diameter of the inhibition zone” value is “−” with E. coli (ATCC: 3008) [1]; 29.6 ± 1.5 mm in [2]; “−” in [3]; “−” in the test on S. aureus (ATCC: 6538) [4]; “−” in the test on S. mutans (ATCC: 25175) [5]; “−” in test [6]. In addition, the zone of inhibition at 15000 µg/mL in test [2] was 29 mm.

Regarding `CSc1c(C#N)c(O)n(NS(=O)(=O)c2ccccc2)c(=O)c1-c1nc2ccccc2s1` [compound 5c, N-(3-(Benzo[d]thiazol-2-yl)-5-cyano-6-hydroxy-4-(methylthio)-2-oxopyridin-1(2H)-yl)benzenesulfonamide], the zone of inhibition at 15000 µg/mL turned out to be 23.3 ± 1.5 mm with E. coli (ATCC: 3008) [1], 27.3 ± 1.5 mm in test [2] and 17.6 ± 1.5 mm in the test on S. aureus (ATCC: 6538) [4]. The “diameter of the inhibition zone” value (in test [3]; with S. mutans (ATCC: 25175) [5]; in test [6]) was “−” throughout.

For `Cc1ccc(S(=O)(=O)Nn2c(N)c3c(N)n[nH]c3c(-c3nc4ccccc4s3)c2=O)cc1` [compound 11b, N-(3,4-Diamino-7-(benzo[d]thiazol-2-yl)-6-oxo-1H-pyrazolo[4,3-c]pyridin-5(6H)-yl)-4-methylbenzenesulfonamide], the “diameter of the inhibition zone” value was 26.0 ± 1.0 mm in the test with E. coli (ATCC: 3008) [1]; “−” in test [3]; “no potency and −” in test [6]. The zone of inhibition at 15000 µg/mL in the test with E. coli (ATCC: 3008) [1] worked out at 26 ± 1 mm; in test [2] it was 17.5 ± 0.5 mm; in the test with S. aureus (ATCC: 6538) [4], 25.2 ± 1 mm; in the test with S. mutans (ATCC: 25175) [5], 21 ± 1 mm. Also, the MIC was determined as 31.2 µg/mL (≈ 66.8 µM) against E. coli (ATCC: 3008) [10], 125 µg/mL (≈ 267 µM) in test [11], 500 µg/mL (≈ 1070 µM) with S. aureus (ATCC: 6538) [7] and 500 µg/mL (≈ 1070 µM) in the test on S. mutans (ATCC: 25175) [8]. For the same compound, the figures for the IC50 (in [12]; against human DHFR) were 295 ± 19.1 µg/mL (≈ 631 µM) and 11.8 µM, respectively. Besides, the inhibition at 0.01 µg/mL on human DHFR was 12.4%. Moreover, the inhibition at 0.1 µg/mL on human DHFR is 19.3%. In addition, the inhibition at 1 µg/mL on human DHFR stood at 31.2%. Moreover, the inhibition at 10 µg/mL at human DHFR was found to be 60.1%.

In the case of `Cc1ccc(S(=O)(=O)NNC(=O)Cc2nc3ccccc3s2)cc1` [compound 3b, N′-(2-(Benzo[d]thiazol-2-yl)acetyl)-4-methylbenzenesulfonohydrazide], the zone of inhibition at 15000 µg/mL in the test with E. coli (ATCC: 3008) [1] is 17.3 ± 2.5 mm; in test [2] it was 32 ± 2 mm; with S. aureus (ATCC: 6538) [4], 17.6 ± 2.5 mm; with S. mutans (ATCC: 25175) [5] it was 10.6 ± 0.5 mm. Besides, the “diameter of the inhibition zone” value in [3] and in test [6] was “−” in each case. Besides, the MIC in the test on E. coli (ATCC: 3008) [10] was 250 µg/mL (≈ 692 µM); in the test with S. aureus (ATCC: 6538) [7], 1000 µg/mL (≈ 2770 µM); against S. mutans (ATCC: 25175) [8] it was 1000 µg/mL (≈ 2770 µM). Moreover, the IC50 in [12] was 165 ± 3.04 µg/mL (≈ 456 µM); on human DHFR, 1.02 µM. Further, the inhibition at 0.01 µg/mL at human DHFR came out at 17.9%. In addition, on human DHFR, the inhibition at 0.1 µg/mL was 33.4%. For the same compound, the inhibition at 1 µg/mL at human DHFR is 60.9%. For the same compound, the inhibition at 10 µg/mL on human DHFR amounted to 81.5%.

In the case of `COc1ccc(NC(=O)c2c(SC)c(-c3nc4ccccc4s3)c(=O)n(NS(=O)(=O)c3ccccc3)c2N)cc1` [compound 9e, 2-Amino-5-(benzo[d]thiazol-2-yl)-N-(4-methoxyphenyl)-4-(methylthio)-6-oxo-1-(phenylsulfonamido)-1,6-dihydropyridine-3-carboxamide], the “diameter of the inhibition zone” value is “−” in the test on E. coli (ATCC: 3008) [1]; “no activity and −” in test [2]; “−” in test [3]; “−” with S. mutans (ATCC: 25175) [5]; “−” in test [6]. In the test on S. aureus (ATCC: 6538) [4], the zone of inhibition at 15000 µg/mL amounted to 19.6 ± 1 mm.

As to `CSc1c(C(=O)Nc2ccc(C)cc2)c(N)n(NS(=O)(=O)c2ccccc2)c(=O)c1-c1nc2ccccc2s1` [compound 9c, 2-Amino-5-(benzo[d]thiazol-2-yl)-4-(methylthio)-6-oxo-1-(phenylsulfonamido)-N-(p-tolyl)-1,6-dihydropyridine-3-carboxamide], the zone of inhibition at 15000 µg/mL in the test on E. coli (ATCC: 3008) [1] was found to be 14.8 ± 0.2 mm; in [2], 29 mm; with S. mutans (ATCC: 25175) [5], 20.2 ± 1 mm. Moreover, the “diameter of the inhibition zone” value in test [2] is 29.2 ± 0.3 mm; in test [3], “−”; in the test on S. aureus (ATCC: 6538) [4] it was “−”; in test [6], “−”.

`CSc1c(C(=O)Nc2ccccc2)c(N)n(NS(=O)(=O)c2ccccc2)c(=O)c1-c1nc2ccccc2s1` [compound 9a, 2-Amino-5-(benzo[d]thiazol-2-yl)-4-(methylthio)-6-oxo-N-phenyl-1-(phenylsulfonamido)-1,6-dihydropyridine-3-carboxamide]: the “diameter of the inhibition zone” value was “−” with E. coli (ATCC: 3008) [1]; “−” in test [2]; “−” in test [3]; 31 ± 1.0 mm in the test on S. aureus (ATCC: 6538) [4]; “−” in the test on S. mutans (ATCC: 25175) [5]; “−” in test [6]. The zone of inhibition at 15000 µg/mL with S. aureus (ATCC: 6538) [4] worked out at 31 ± 1 mm.

The values are drawn from paper PMC7226860 (ACS Omega, 2020).
